{
  "source": "patent US20160038438A1",
  "about": "“COMBINATION OF NORDIHYDROGUAIARETIC ACID AND AN AMINOGLYCOSIDE” (HELPERBY THERAPEUTICS LIMITED, priority 2013, published 2016)",
  "key": {"enterobacteria": {"system": "enterobacteria", "conditions": "cited from earlier work"}, "log phase S. aureus [1]": {"system": "log phase S. aureus", "experiment": "Time kill curve, HT013006 alone and with gentamycin, log phase S. aureus", "assay_type": "cell-based, Staphylococcus aureus", "excerpt": "HT013006 alone and in combination with gentamycin against log phase S. aureus using time kill curve."}, "log phase S. aureus [2]": {"system": "log phase S. aureus", "experiment": "Chequerboard method, HT013006 (NDGA) with gentamycin, log phase S. aureus", "assay_type": "cell-based, Staphylococcus aureus", "conditions": "for MIC before combination: drug alone, log phase S. aureus", "procedure": "Log phase growth of S. aureus was carried out as described in the art. HT013006 in combination with gentamycin against log phase S. aureus using chequerboard method The effects of combination were examined by calculating the fractional inhibitory concentration index (FICI) of each combination, as follows: (MIC of drug A, tested in combination)/(MIC of drug A, tested alone)+(MIC of drug B, tested in combination)/(MIC of drug B, tested alone). The interaction of the combination was defined as showing synergy if the FICI was ≦0.5, no interaction if the FICI was >0.5 but <4.0 and antagonism if the FICI was >4.0."}, "[3]": {"system": "log phase Staphylococcus aureus gentamycin resistant clinical strain", "experiment": "Time kill, HT013006 with gentamycin, gentamycin resistant clinical strain", "assay_type": "cell-based", "procedure": "• 1. HT013006 at 16 and 8 μg/ml had no activities against log phase MRSA. • 2. […] The minimal concentration of HT013006 was 2 μg/ml when combined with 0.5 and 0.25 μg/ml of gentamycin. • (b) log phase phase Staphylococcus aureus gentamycin resistant clinical strain by time kill (340)"}, "[4]": {"system": "log phase methicillin resistant Staphylococcus aureus clinical strain", "experiment": "Time kill, HT013006 with gentamycin, log phase MRSA clinical strain", "assay_type": "cell-based"}, "[5]": {"system": "log phase Staphylococcus aureus Oxford strain", "experiment": "Time kill, HT013006 with neomycin, log phase S. aureus Oxford strain", "assay_type": "cell-based", "procedure": "Using the methods described in Example 2, HT013006 was tested in combination with neomycin against log phase Staphylococcus aureus Oxford strain over a time period of 24 hours."}, "yeast pathogens": {"system": "yeast pathogens", "conditions": "against yeast pathogens; cited from earlier work"}, "[6]": {"conditions": "HT013006 alone at 16, 8, 4 and 2 μg/ml"}},
  "data": [
    {"compound": "Cc1cn([C@H]2C[C@H](N=[N+]=[N-])[C@@H](CO)O2)c(=O)[nH]c1=O", "note": "[AZT, zidovudine]", "values": [
      {"measurement": "interaction with the aminoglycosides amikacin and gentamycin", "setting": "enterobacteria; against enterobacteria", "result": "additive or synergistic activity"},
      {"measurement": "effect on bacteria", "setting": "enterobacteria; some enterobacteria", "result": "bactericidal effect"}
    ]},
    {"compound": "gentamycin [reference compound]", "values": [
      {"measurement": "activity in time kill", "setting": "log phase S. aureus [1]; gentamycin 0.0625 μg/ml", "result": "no activity"},
      {"measurement": "activity in time kill", "setting": "log phase S. aureus [1]; gentamycin 0.125 μg/ml", "result": "inhibition over 8 hours of treatment, then regrowth was seen"},
      {"measurement": "regrowth", "setting": "log phase S. aureus [1]; gentamycin 0.25 μg/ml", "result": "regrowth was seen after 4 hours"},
      {"measurement": "kill", "setting": "log phase S. aureus [1]; gentamycin 0.25 μg/ml, at 4 hours of incubation", "result": 3, "unit": "log"},
      {"measurement": "regrowth", "setting": "log phase S. aureus [1]; gentamycin 0.5 μg/ml", "result": "regrowth was seen after 2 hours"},
      {"measurement": "kill", "setting": "log phase S. aureus [1]; gentamycin 0.5 μg/ml, at 2 hours of incubation", "result": 3.5, "unit": "log"},
      {"measurement": "MIC of gentamycin in combination", "setting": "log phase S. aureus [2]; combined with 16 μg/ml of HT013006", "result": 0.0078, "unit": "µg/mL"},
      {"measurement": "MIC before combination", "setting": "log phase S. aureus [2]", "result": 0.5, "unit": "µg/mL"},
      {"measurement": "activity in time kill", "setting": "[3]; gentamycin at 4, 2, 1 and 0.5 ug/ml, strain 17", "result": "no activities"}
    ]},
    {"compound": "CC(Cc1ccc(O)c(O)c1)C(C)Cc1ccc(O)c(O)c1", "note": "(stereo not shown) [HT013006, nordihydroguaiaretic acid]", "values": [
      {"measurement": "activity in time kill", "setting": "log phase S. aureus [1]; [6]", "result": "no activities"},
      {"measurement": "activity in time kill", "setting": "log phase S. aureus [1]; HT013006 alone at 16 and 8 μg/ml", "result": "no activities"},
      {"measurement": "activity in time kill", "setting": "[4]; HT013006 alone at 16 and 8 μg/ml, log phase MRSA", "result": "no activities"},
      {"measurement": "minimal concentration of HT013006 in combination", "setting": "[4]; combined with 0.5 and 0.25 μg/ml of gentamycin", "result": 2, "unit": "µg/mL"},
      {"measurement": "activity in time kill", "setting": "[5]; HT013006 alone at 16, 8, 4 and 2 μg/ml, 24 hours", "result": "no activities"},
      {"measurement": "minimal concentration of HT013006 which showed maximal enhanced effect", "setting": "[5]; in combination with neomycin", "result": 8, "unit": "µg/mL"},
      {"measurement": "MIC of HT013006 in combination", "setting": "log phase S. aureus [2]; combined with 0.25 μg/ml of gentamycin", "result": 1, "unit": "µg/mL"},
      {"measurement": "MIC before combination", "setting": "log phase S. aureus [2]", "result": 64, "unit": "µg/mL"},
      {"measurement": "activity in time kill", "setting": "[3]; [6]", "result": "no activities"},
      {"measurement": "minimal concentration of HT013006 which showed enhanced activities", "setting": "[3]; combined with 4 and 2 μg/ml of gentamycin", "result": 2, "unit": "µg/mL"},
      {"measurement": "effect on amphotericin B activity", "setting": "yeast pathogens", "result": "enhancing the effect of amphotericin B"}
    ]}
  ]
}
